Biological target: T1, human FSH receptor (Homo sapiens, UniProt P23945)
T1 construct: expressed in transfected cells; host or cells: CHO cells (hFSHR clone 16)
T1 sequence (P23945 18-695): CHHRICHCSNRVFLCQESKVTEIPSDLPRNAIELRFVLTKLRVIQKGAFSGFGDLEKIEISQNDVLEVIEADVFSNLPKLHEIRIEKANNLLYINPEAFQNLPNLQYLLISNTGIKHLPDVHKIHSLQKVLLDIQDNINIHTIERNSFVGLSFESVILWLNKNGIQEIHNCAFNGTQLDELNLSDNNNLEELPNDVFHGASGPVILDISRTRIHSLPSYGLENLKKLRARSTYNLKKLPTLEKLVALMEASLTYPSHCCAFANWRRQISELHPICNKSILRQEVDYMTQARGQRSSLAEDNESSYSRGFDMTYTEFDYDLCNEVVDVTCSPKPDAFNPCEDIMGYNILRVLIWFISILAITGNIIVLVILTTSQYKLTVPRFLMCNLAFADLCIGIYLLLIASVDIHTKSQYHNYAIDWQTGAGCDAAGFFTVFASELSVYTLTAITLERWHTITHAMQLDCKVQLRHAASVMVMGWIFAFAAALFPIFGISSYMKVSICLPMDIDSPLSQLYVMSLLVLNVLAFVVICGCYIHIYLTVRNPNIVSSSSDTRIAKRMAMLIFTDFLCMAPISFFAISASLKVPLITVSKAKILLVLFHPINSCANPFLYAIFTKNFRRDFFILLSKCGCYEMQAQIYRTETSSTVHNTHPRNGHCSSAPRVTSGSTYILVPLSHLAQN
Assay: HTRF assay for measuring cAMP in cells, FSH-antagonistic effect (in the presence of hFSH)
Format: cell-based
Settings: hFSHR clone 16 cells (CHO cells stably transfected with the human FSH receptor), in the presence of 1e-9 mol/l hFSH, 37° C. for 2 h
From the text: […]

Row | Compound | IC50 [nM]
1 | COc1cc(-c2cc(C(=O)NC(CO)Cc3c[nH]c4c(C)cccc34)c3ccccc3n2)cc(OC)c1OC (racemic) [Example 10, N-[(R,S)-1-(Hydroxymethyl)-2-(7-methyl-1H-indol-3-yl)ethyl]-2-(3,4,5-trimethoxyphenyl)quinoline-4-carboxamide] | 1000
2 | COc1ccc2nc(/C=C/c3ccc(OC)c(OC)c3)cc(C(=O)N[C@@H](CO)Cc3c[nH]c4ccccc34)c2c1 [Example 38, 2-[(E)-2-(3,4-Dimethoxyphenyl)ethenyl]-N-[(R)-1-(hydroxymethyl)-2-(1H-indol-3-yl)ethyl]-6-methoxyquinoline-4-carboxamide] | 900
3 | CCCCCCn1cc(C[C@H](CO)NC(=O)c2cc(-c3cc(OC)c(OC)c(OC)c3)nc3ccc(OC)cc23)c2ccccc21 [Example 345, N-[(R)-1-(Hydroxymethyl)-2-(1-nhexyl-1H-indol-3-yl)ethyl]-6-methoxy-2-(3,4,5-trimethoxyphenyl)quinoline-4-carboxamide] | 1000
4 | COc1ccc2nc(-c3ccc(OC)c(F)c3)nc(C(=O)N[C@@H](CO)Cc3c[nH]c4ccccc34)c2c1 [Example 368, 2-(3-Fluoro-4-methoxyphenyl)-6-methoxyquinazoline-4-carboxylic acid [(R)-2-hydroxy-1-(1H-indol-3-ylmethyl)ethyl]amide] | 2500
5 | COc1ccc2nc(-c3cc4c(F)cccc4o3)cc(C(=O)N[C@@H](CO)Cc3c[nH]c4ccccc34)c2c1 [Example 120, 2-(4-Fluorobenzofuran-2-yl)-N-[(R)-1-(hydroxymethyl)-2-(1H-indol-3-yl)ethyl]-6-methoxyquinoline-4-carboxamide] | 1500
6 | COc1cc(-c2cc(C(=O)NC(CO)Cc3c[nH]c4cc(F)ccc34)c3ccccc3n2)cc(OC)c1OC (racemic) [Example 8, N-[(R,S)-2-(6-Fluoro-1H-indol-3-yl)-1-(hydroxymethyl)ethyl]-2-(3,4,5-trimethoxyphenyl)quinoline-4-carboxamide] | 1000
7 | O=C(N[C@@H](CO)Cc1c[nH]c2ccccc12)c1cc(-c2ccc3c(c2)CCO3)nc2ccccc12 [Example 36, 2-(2,3-Dihydrobenzofuran-5-yl)-N-[(R)-1-(hydroxymethyl)-2-(1H-indol-3-yl)ethyl]quinoline-4-carboxamide] | 6000
8 | COc1cc(-c2cc(C#CCO)cc(C(=O)N[C@@H](CO)Cc3c[nH]c4ccccc34)c2)cc(OC)c1OC [Example 379, 5-(3-Hydroxyprop-1-ynyl)-3′,4′,5′-trimethoxybiphenyl-3-carboxylic acid [(R)-1-hydroxy-methyl-2-(1H-indol-3-yl)ethyl]amide] | 4500
9 | COc1cc(-c2cc(C(=O)N[C@@H](CO)Cc3c[nH]c4ccccc34)c3nc[nH]c3c2)cc(OC)c1OC [Example 361, 6-(3,4,5-Trimethoxyphenyl)-1H-benzoimidazole-4-carboxylic acid [(R)-2-hydroxy-1-(1H-indol-3-ylmethyl)ethyl]amide] | 4000
10 | COc1ccc(-c2cc(CCCO)cc(C(=O)N[C@@H](CO)Cc3c[nH]c4ccccc34)c2)cc1OC [Example 396, 5-(3-Hydroxypropyl)-3′,4′-dimethoxybiphenyl-3-carboxylic acid [(R)-1-hydroxymethyl-2-(1H-indol-3-yl)ethyl]amide] | 3500
11 | COc1cc(-c2cc(/C=C\CCCO)cc(C(=O)N[C@@H](CO)Cc3c[nH]c4ccccc34)c2)cc(OC)c1OC [Example 388, 5-((Z)-5-Hydroxypent-1-enyl)-3′,4′,5′-trimethoxybiphenyl-3-carboxylic acid [(R)-1-hydroxy-methyl-2-(1H-indol-3-yl)ethyl]amide] | 400
12 | COc1ccc2nc(-c3cc(OC)c(OC)c(OC)c3)cc(C(=O)N[C@@H](CO)Cc3cn(C)c4ccccc34)c2c1 [Example 22, N-[(R)-1-(Hydroxymethyl)-2-(1-methyl-1H-indol-3-yl)ethyl]-6-methoxy-2-(3,4,5-trimethoxyphenyl)quinoline-4-carboxamide] | 300
13 | COc1ccc2cc(-c3cc(C(=O)N[C@@H](CO)Cc4c[nH]c5ccccc45)c4ccccc4n3)ccc2c1 [Example 97, 2-(6-Methoxy-naphthalen-2-yl)quinoline-4-carboxylic acid [(R)-1-hydroxymethyl-2-(1H-indol-3-yl)ethyl]amide] | 4000
14 | CCOc1ccc(-c2ccc(C)cc2)cc1C(=O)N[C@@H](CO)Cc1c[nH]c2ccccc12 [Example 162, 4-Ethoxy-4′-methylbiphenyl-3-carboxylic acid [(R)-1-hydroxy-methyl-2-(1H-indol-3-yl)ethyl]amide] | 1500
15 | CC(C)c1cccc(-c2ccccc2C(=O)N[C@@H](CO)Cc2c[nH]c3ccccc23)c1 [Example 86, N-[(R)-1-(Hydroxymethyl)-2-(1H-indol-3-yl)ethyl]-3′-(1-methylethyl)[1,1′-biphenyl]-2-carboxamide] | 8000
16 | COc1cc(-c2cc(C(=O)NC(CO)Cc3c[nH]c4ccc(OCc5ccccc5)cc34)c3ccccc3n2)cc(OC)c1OC (racemic) [Example 9, N-[(R,S)-1-(Hydroxymethyl)-2-[5-(phenylmethoxy)-1H-indol-3-yl]ethyl]-2-(3,4,5-trimethoxyphenyl)quinoline-4-carboxamide] | 200
17 | COc1ccc2nc(CCc3ccc(OC)c(OC)c3)cc(C(=O)N[C@@H](CO)Cc3c[nH]c4ccccc34)c2c1 [Example 96, 2-[2-(3,4-dimethoxyphenyl)ethyl]-N-[(R)-1-(hydroxymethyl)-2-(1H-indol-3-yl)ethyl]-6-methoxyquinoline-4-carboxamide] | 7000
18 | COc1cc(COc2ccccc2CCC(=O)N[C@@H](CO)Cc2c[nH]c3ccccc23)cc(OC)c1OC [Example 91, N-[(R)-1-(Hydroxymethyl)-2-(1H-indol-3-yl)ethyl]-2-[(3,4,5-trimethoxyphenyl)methoxy]phenylpropanamide] | 6000
19 | CC(C)c1cccc(-c2cccc(C(=O)N[C@@H](CO)Cc3c[nH]c4ccccc34)c2)c1 [Example 59, N-[(R)-1-(Hydroxymethyl)-2-(1H-indol-3-yl)ethyl]-3′-(1-methylethyl)[1,1′-biphenyl]-3-carboxamide] | 6000
20 | COc1ccc(-c2cc(F)c(F)c(F)c2)c(C(=O)N[C@@H](CO)Cc2c[nH]c3ccccc23)c1 [Example 88, 3′,4′, 5′-Trifluoro-N-[(R)-1-(hydroxymethyl)-2-(1H-indol-3-yl)ethyl]-4-methoxy[1,1′-biphenyl]-2-carboxamide] | 10000
21 | CCOc1ccc(-c2cnc(OC)nc2)cc1C(=O)N[C@@H](CO)Cc1c[nH]c2ccccc12 [Example 130, 2-Ethoxy-N-[(R)-1-hydroxymethyl-2-(1H-indol-3-yl)ethyl]-5-(2-methoxypyrimidin-5-yl)benzamide] | 4000
22 | COc1ccc(-c2cccc(C(=O)N[C@@H](CO)Cc3cn(CCCCC#N)c4ccccc34)c2)cc1F [Example 403, N-[(R)-2-[1-(4-Cyanobutyl)-1H-indol-3-yl]-1-(hydroxymethyl)ethyl]-3′-fluoro-4′-methoxy[1,1′-biphenyl]-3-carboxamide] | 100
23 | COc1cc(-c2cc(C(=O)N[C@@H](CO)Cc3c[nH]c4ccccc34)c3cc(F)ccc3n2)cc(OC)c1OC [Example 17, 6-Fluoro-N-[(R)-1-(hydroxymethyl)-2-(1H-indol-3-yl)ethyl]-2-(3,4,5-trimethoxyphenyl)quinoline-4-carboxamide] | 400

— patent US20070060573A1, “Acyltryptophanols” (priority 2005, published 2007)
